Assay results from US9951046B2, “TRPA1 modulators” (Algomedix, Inc., priority 2014, dated 2018).
pIC50: −log10 of the molar value.

What follows are molecules tested against T1, human TRPA1 (Homo sapiens, UniProt O75762) (assay: Cell-based functional intracellular calcium ([Ca2+]i) assay, Fluo-4/Fluo-8, FlexStation, challenge with reference TRPA1 agonist (FFA, AITC or 4-HNE)). Conditions: HEK293 cells expressing human TRPA1; IC50 class after addition of reference TRPA1 agonist (FFA, AITC or 4-HNE); read-out: human TRPA1-HEK Activity.
T1 construct: expressed in transfected cells
Procedure, shortened: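 Doxycycline-induced (1 μg/ml) HEK293 expressing human TRPA1, with 5 μM ruthenium red during induction, loaded with Fluo-4 or Fluo-8 plus 2 mM probenecid; FlexStation read at 20-25° C, sometimes with 0.1% BSA.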

T1 sequence (O75762 whole entry): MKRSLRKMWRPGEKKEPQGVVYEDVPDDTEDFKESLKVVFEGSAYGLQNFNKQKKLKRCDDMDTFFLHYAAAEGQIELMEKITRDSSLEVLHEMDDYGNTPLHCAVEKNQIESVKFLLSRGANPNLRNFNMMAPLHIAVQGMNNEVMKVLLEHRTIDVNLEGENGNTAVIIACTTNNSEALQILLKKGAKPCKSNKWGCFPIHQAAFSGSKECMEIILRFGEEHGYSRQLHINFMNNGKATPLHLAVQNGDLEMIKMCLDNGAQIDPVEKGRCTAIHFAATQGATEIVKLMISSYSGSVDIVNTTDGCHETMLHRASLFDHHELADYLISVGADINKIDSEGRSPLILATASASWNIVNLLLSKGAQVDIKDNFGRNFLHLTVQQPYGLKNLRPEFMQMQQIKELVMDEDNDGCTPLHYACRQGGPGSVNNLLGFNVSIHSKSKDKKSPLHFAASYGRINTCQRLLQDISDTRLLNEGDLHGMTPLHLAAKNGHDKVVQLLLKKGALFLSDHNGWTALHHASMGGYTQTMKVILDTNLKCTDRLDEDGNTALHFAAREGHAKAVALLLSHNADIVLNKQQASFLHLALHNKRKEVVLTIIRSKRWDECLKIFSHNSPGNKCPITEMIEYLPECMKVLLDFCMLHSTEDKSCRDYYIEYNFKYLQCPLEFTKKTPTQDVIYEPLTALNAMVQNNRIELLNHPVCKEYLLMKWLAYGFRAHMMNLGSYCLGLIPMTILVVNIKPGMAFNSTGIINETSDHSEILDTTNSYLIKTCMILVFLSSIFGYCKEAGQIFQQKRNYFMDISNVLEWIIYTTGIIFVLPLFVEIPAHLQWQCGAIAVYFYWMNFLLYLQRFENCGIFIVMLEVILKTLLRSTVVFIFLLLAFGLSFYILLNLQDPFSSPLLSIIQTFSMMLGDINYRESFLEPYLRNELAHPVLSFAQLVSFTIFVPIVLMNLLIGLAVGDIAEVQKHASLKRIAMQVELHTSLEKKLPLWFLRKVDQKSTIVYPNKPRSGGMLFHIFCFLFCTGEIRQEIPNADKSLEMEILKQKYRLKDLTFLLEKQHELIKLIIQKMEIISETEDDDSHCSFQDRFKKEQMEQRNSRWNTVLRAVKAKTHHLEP

First: O=C(c1cc(-c2ccccn2)n(-c2cc(F)c(F)c(F)c2)n1)N1CCC(n2c(=O)[nH]c3ccc(F)c(F)c32)CC1 [Compound 252]
Second: O=C(c1cc(-c2cccnc2)n(-c2cc(F)c(F)c(F)c2)n1)N1CCC(n2c(=O)[nH]c3ncccc32)CC1 [Compound 256]
The pIC50 of the first is higher: 4.60 to 5.30 for the first, under 4.60 for the second. The first is the more potent here.

`O=C(c1cc(-c2cccnc2)n(-c2cc(F)c(F)c(F)c2)n1)N1CCC2(CC1)C(=O)NCN2c1ccc(F)cc1` [Compound 253] and `O=C(c1cc(-c2cccnc2)n(-c2cc(F)c(F)c(F)c2)n1)N1CCC2(CC1)C(=O)NCN2c1ccc(F)c(F)c1` [Compound 254] fall in the same range of pIC50: 5.30 to 9.00 for the first, 5.30 to 9.00 for the second.

Compared with `Cc1cc(N2CNC(=O)C23CCN(C(=O)c2cc(-c4cccnc4)n(-c4cc(F)c(F)c(F)c4)n2)CC3)ccc1F` [Compound 255], `O=C(c1cc(-c2cccnc2)n(-c2cc(F)c(F)c(F)c2)n1)N1CCC2(CC1)C(=O)NCN2c1ccc(F)cc1F` [Compound 257] is lower in pIC50: 5.30 to 9.00 for the first, under 4.60 for the second. The first is the more potent here.

First: O=C1Nc2ccccc2C1N1CCN(C(=O)c2cc(-c3cccnc3)n(-c3ccc(C(F)(F)F)c(F)c3)n2)CC1 (stereo not shown) [Compound 258]
Second: O=C(c1cc(-c2cccnc2)n(-c2ccc(C(F)(F)F)c(F)c2)n1)N1CCC2(CC1)C(=O)Nc1ccccc12 [Compound 259]
The pIC50 of the first is lower: under 4.60 for the first, 4.60 to 5.30 for the second. The second is the more potent here.

`O=C(c1cc(-c2cccnc2)n(-c2ccc(C(F)(F)F)c(F)c2)n1)N1CCC(n2c(=O)[nH]c3ncccc32)CC1` [Compound 260] and `CC1CC(n2c(=O)[nH]c3ccccc32)CCN1C(=O)c1cc(-c2cccnc2)n(-c2ccc(C(F)(F)F)c(F)c2)n1` (stereo not shown) [Compound 261] fall in the same range of pIC50: 5.30 to 9.00 for the first, 5.30 to 9.00 for the second.

`Cc1ccc(-c2cc(C(=O)N3CCC4(CC3)C(=O)NCN4c3ccc(F)cc3)nn2-c2ccc(C(F)(F)F)c(F)c2)cn1` [Compound 262] and `O=C(c1cc(-c2ccccn2)n(-c2ccc(C(F)(F)F)c(F)c2)n1)N1CCC2(CC1)C(=O)NCN2c1ccc(F)cc1` [Compound 264] fall in the same range of pIC50: 4.60 to 5.30 for the first, 4.60 to 5.30 for the second.

First: Cc1nc(C(F)(F)F)ccc1-c1cc(C(=O)N2CCC3(CC2)C(=O)NCN3c2ccc(F)cc2)nn1-c1ccc(C(F)(F)F)c(F)c1 [Compound 263]
Second: Cc1c(C(=O)N2CCC3(CC2)C(=O)NCN3c2ccc(F)cc2)nn(-c2ccc(C(F)(F)F)c(F)c2)c1-c1cccnc1 [Compound 265]
The pIC50 of the first is lower: under 4.60 for the first, 5.30 to 9.00 for the second.

First: Cc1c(C(=O)N2CCC3(CC2)C(=O)NCN3c2ccc(F)cc2)nn(-c2cc(F)c(F)c(F)c2)c1-c1cccnc1 [Compound 266]
Second: O=C(c1cc(-c2cccnc2)n(-c2ccc(F)c(C(F)(F)F)c2)n1)N1CCC2(CC1)C(=O)NCN2c1ccc(OC(F)F)cc1 [Compound 283]
The pIC50 of the first is higher: 5.30 to 9.00 for the first, 4.60 to 5.30 for the second.

`O=C1Nc2ccc(F)c(F)c2C2(CCN(C(=O)c3cc(-c4cccnc4)n(-c4ccc(F)c(C(F)(F)F)c4)n3)CC2)O1` [Compound 272] and `O=C1Nc2ccc(Cl)cc2C2(CCN(C(=O)c3cc(-c4cccnc4)n(-c4ccc(F)c(C(F)(F)F)c4)n3)CC2)O1` [Compound 280] fall in the same range of pIC50: 5.30 to 9.00 for the first, 5.30 to 9.00 for the second.

`O=C1Nc2cc(F)c(F)cc2C2(CCN(C(=O)c3cc(-c4cccnc4)n(-c4ccc(F)c(C(F)(F)F)c4)n3)CC2)O1` [Compound 273] and `O=C1Nc2cc(F)ccc2C2(CCN(C(=O)c3cc(-c4cccnc4)n(-c4ccc(F)c(C(F)(F)F)c4)n3)CC2)O1` [Compound 278] fall in the same range of pIC50: 5.30 to 9.00 for the first, 5.30 to 9.00 for the second.

`O=C1Nc2ccc(C(F)(F)F)cc2C2(CCN(C(=O)c3cc(-c4cccnc4)n(-c4ccc(F)c(C(F)(F)F)c4)n3)CC2)O1` [Compound 274] and `O=C1Nc2ccc(F)cc2C2(CCN(C(=O)c3cc(-c4cccnc4)n(-c4ccc(F)c(C(F)(F)F)c4)n3)CC2)O1` [Compound 282] fall in the same range of pIC50: 5.30 to 9.00 for the first, 5.30 to 9.00 for the second.

`O=C1Nc2ncccc2C2(CCN(C(=O)c3cc(-c4cccnc4)n(-c4ccc(F)c(C(F)(F)F)c4)n3)CC2)O1` [Compound 281] and `N#Cc1ccc(-n2nc(C(=O)N3CCC(n4c(=O)[nH]c5ccc(F)c(F)c54)CC3)cc2-c2cccnc2)cc1C(F)(F)F` [Compound 284] fall in the same range of pIC50: 5.30 to 9.00 for the first, 5.30 to 9.00 for the second.

Work on `O=C(c1cc(-c2cccnc2)n(-c2ccc(C(F)(F)F)c(C(F)(F)F)c2)n1)N1CCC(n2c(=O)[nH]c3ccc(F)c(F)c32)CC1` [Compound 285] yielded a pIC50 of 5.30 to 9.00.
